Assay results reported in US8513248B2, “5,6,7,8-tetrahydroimidazo[1,2-A]pyrazine derivatives as P2X7 modulators” (Glaxo Group Limited, priority 2009, dated 2013).
Where a name gives a salt, the structure may show the parent alone.

The molecules below were run against T1, human recombinant P2X7 receptors (Homo sapiens, UniProt Q99572) (assay: Ethidium Accumulation Assay 1). Settings: HEK293 cells stably expressing human recombinant P2X7; 1 mM ATP; ethidium 100 μM; read-out: Assay 1 (antagonist pIC50 for blocking ATP responses, ethidium accumulation) (converted).
T1 construct: expressed in transfected cells
T1 sequence (Q99572 1-595): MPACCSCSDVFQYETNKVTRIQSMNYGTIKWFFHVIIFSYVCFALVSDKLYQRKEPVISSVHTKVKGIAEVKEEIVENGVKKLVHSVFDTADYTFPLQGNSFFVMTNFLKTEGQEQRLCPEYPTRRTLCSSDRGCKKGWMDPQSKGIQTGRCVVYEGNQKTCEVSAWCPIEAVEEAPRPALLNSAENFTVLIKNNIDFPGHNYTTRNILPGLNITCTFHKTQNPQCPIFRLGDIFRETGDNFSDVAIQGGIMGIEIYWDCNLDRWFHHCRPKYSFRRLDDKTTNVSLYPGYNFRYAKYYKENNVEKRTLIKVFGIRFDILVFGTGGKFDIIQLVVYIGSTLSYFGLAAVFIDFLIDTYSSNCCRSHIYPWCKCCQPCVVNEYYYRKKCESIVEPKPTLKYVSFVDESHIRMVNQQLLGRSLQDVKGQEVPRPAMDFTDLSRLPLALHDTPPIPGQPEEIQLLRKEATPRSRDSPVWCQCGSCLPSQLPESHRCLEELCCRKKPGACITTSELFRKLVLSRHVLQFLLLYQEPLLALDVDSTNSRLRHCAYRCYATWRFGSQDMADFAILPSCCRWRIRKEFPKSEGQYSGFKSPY
Format: cell-based
Method: Studies were performed using NaCl assay buffer of the following composition: 140 mM NaCl, 10 mM HEPES [4-(2-hydroxyethyl)-1-piperazine-1-ethanesulfonic acid], 5 mM N-methyl-D-glucamine, 5.6 mM KCl, 10 mM D-glucose, 0.5 mM CaCl2 (pH 7.4).
Human Embryonic Kidney (HEK) 293 cells, stably expressing human recombinant P2X7 receptors, were grown in poly-D-lysine pretreated 96 well plates for 18-24 hours. […] The cells were washed twice with 350 μl of the assay buffer, before addition of 50 μl of the assay buffer containing the putative P2X7 receptor antagonist compound. (A small amount of dimethyl sulfoxide, for initially dissolving the compound, is optionally used and present in this […] test compound sample.) The cells were then incubated at room temperature (19-21° C.) for 30 min before addition of ATP and ethidium (100 μM final assay concentration). The ATP concentration was chosen to be close to the EC80 for the receptor type and was 1 mM for studies on the human P2X7 receptor. Incubations were continued for 8 or 16 min and were terminated by addition of 25 μl of 1.3M sucrose containing 4 mM of the P2X7 receptor antagonist Reactive Black 5 (Aldrich). […] Antagonist pIC50 values for blocking ATP responses were determined using iterative curve fitting techniques.

| Structure (SMILES) | IC50 [µM] |
| --- | --- |
| O=C(c1ccc(F)cc1Cl)N1CCn2c(-c3cnccn3)cnc2C1 [Example 37, 7-[(2-chloro-4-fluorophenyl)carbonyl]-3-(2-pyrazinyl)-5,6,7,8-tetrahydroimidazo[1,2-a]pyrazine] | < 0.01 |
| CCc1cn2c(n1)CN(C(=O)c1ccc(Cl)cc1Cl)CC2 [Example 7, 7-[(2,4-dichlorophenyl)carbonyl]-2-ethyl-5,6,7,8-tetrahydroimidazo[1,2-a]pyrazine] | < 1 |
| O=C(c1ccc(F)cc1Cl)N1CCn2c(-c3ccccc3)cnc2C1 [Example 10, 7-[(2-chloro-4-fluorophenyl)carbonyl]-3-phenyl-5,6,7,8-tetrahydroimidazo[1,2-a]pyrazine hydrochloride] | < 0.1 |
| O=C(c1ccc(Cl)cc1Cl)N1CCn2c(nc(Cl)c2Cl)C1 [Example 29, 2,3-dichloro-7-[(2,4-dichlorophenyl)carbonyl]-5,6,7,8-tetrahydroimidazo[1,2-a]pyrazine] | < 0.1 |
| CCc1cn2c(n1)CN(C(=O)c1cccc(C(F)(F)F)c1Cl)CC2 [Example 6, 7-{[2-chloro-3-(trifluoromethyl)phenyl]carbonyl}-2-ethyl-5,6,7,8-tetrahydroimidazo[1,2-a]pyrazine] | < 0.1 |
| O=C(c1cccc(C(F)(F)F)c1Cl)N1CCn2c(Br)cnc2C1 [Example 18, 3-Bromo-7-{[2-chloro-3-(trifluoromethyl)phenyl]carbonyl}-5,6,7,8-tetrahydroimidazo[1,2-a]pyrazine hydrochloride] | < 0.01 |
| O=C(c1ccc(F)cc1Cl)N1CCn2c(Br)cnc2C1 [Example 30, 3-Bromo-7-[(2-chloro-4-fluorophenyl)carbonyl]-5,6,7,8-tetrahydroimidazo[1,2-a]pyrazine] | < 0.501 |
| O=C(c1cccc(C(F)(F)F)c1Cl)N1CCn2c(-c3ncccn3)cnc2C1 [Example 41, 7-{[2-chloro-3-(trifluoromethyl)phenyl]carbonyl}-3-(2-pyrimidinyl)-5,6,7,8-tetrahydroimidazo[1,2-a]pyrazine] | < 0.01 |
| O=C(c1cccc(C(F)(F)F)c1Cl)N1CCn2c(I)cnc2C1 [Example 21, 7-{[2-chloro-3-(trifluoromethyl)phenyl]carbonyl}-3-iodo-5,6,7,8-tetrahydroimidazo[1,2-a]pyrazine] | < 0.01 |
| O=C(c1c(Cl)cc(Cl)cc1Cl)N1CCn2c(-c3ccccc3)cnc2C1 [Example 17, 3-Phenyl-7-[(2,4,6-trichlorophenyl)carbonyl]-5,6,7,8-tetrahydroimidazo[1,2-a]pyrazine hydrochloride] | < 0.1 |
| O=C(c1ccc(Cl)cc1Cl)N1CCn2c(Cl)cnc2C1 [Example 44, 3-chloro-7-[(2,4-dichlorophenyl)carbonyl]-5,6,7,8-tetrahydroimidazo[1,2-a]pyrazine] | < 0.501 |
| O=C(c1ccc(Cl)cc1Cl)N1CCn2c(-c3ccccc3)cnc2C1 [Example 5, 7-[(2,4-dichlorophenyl)carbonyl]-3-phenyl-5,6,7,8-tetrahydroimidazo[1,2-a]pyrazine hydrochloride] | < 0.1 |
| O=C(c1cccc(C(F)(F)F)c1Cl)N1CCn2c(-c3cscn3)cnc2C1 [Example 42, 7-{[2-chloro-3-(trifluoromethyl)phenyl]carbonyl}-3-(1,3-thiazol-4-yl)-5,6,7,8-tetrahydroimidazo[1,2-a]pyrazine] | < 0.01 |
| Cc1cn2c(n1)CN(C(=O)c1cccc(C(F)(F)F)c1Cl)CC2 [Example 11, 7-{[2-chloro-3-(trifluoromethyl)phenyl]carbonyl}-2-methyl-5,6,7,8-tetrahydroimidazo[1,2-a]pyrazine] | < 0.501 |
| O=C(c1cccc(C(F)(F)F)c1Cl)N1CCn2c(-c3nccs3)cnc2C1 [Example 39, 7-{[2-chloro-3-(trifluoromethyl)phenyl]carbonyl}-3-(1,3-thiazol-2-yl)-5,6,7,8-tetrahydroimidazo[1,2-a]pyrazine] | < 0.01 |

Other lines, results leading:

| IC50 [µM] | Structure (SMILES) |
| --- | --- |
| < 0.01 | O=C(c1cccc(C(F)(F)F)c1Cl)N1CCn2c(-c3ccc(F)cn3)cnc2C1 [Example 31, 7-{[2-Chloro-3-(trifluoromethyl)phenyl]carbonyl}-3-(5-fluoro-2-pyridinyl)-5,6,7,8-tetrahydroimidazo[1,2-a]pyrazine] |
| < 0.01 | O=C(c1cccc(C(F)(F)F)c1Cl)N1CCn2c(nc(Cl)c2Cl)C1 [Example 45, 2,3-dichloro-7-{[2-chloro-3-(trifluoromethyl)phenyl]carbonyl}-5,6,7,8-tetrahydroimidazo[1,2-a]pyrazine] |
| < 0.01 | O=C(c1cccc(C(F)(F)F)c1Cl)N1CCn2c(-c3ccccn3)cnc2C1 [Example 16, a hydrochloride (n•HCl) salt of 7-{[2-chloro-3-(trifluoromethyl)phenyl]carbonyl}-3-(2-pyridinyl)-5,6,7,8-tetrahydroimidazo[1,2-a]pyrazine] |
| < 0.501 | O=C(c1ccc(Cl)cc1Cl)N1CCn2c(nc(C(F)(F)F)c2-c2ccc(F)cc2)C1 [Example 36, 7-[(2,4-dichlorophenyl)carbonyl]-3-(4-fluorophenyl)-2-(trifluoromethyl)-5,6,7,8-tetrahydroimidazo[1,2-a]pyrazine] |
| < 0.01 | O=C(c1cccc(C(F)(F)F)c1Cl)N1CCn2c(-c3ccccc3)cnc2C1 [Example 4, 7-{[2-chloro-3-(trifluoromethyl)phenyl]carbonyl}-3-phenyl-5,6,7,8-tetrahydroimidazo[1,2-a]pyrazine hydrochloride] |
| < 0.1 | O=C(c1cccc(C(F)(F)F)c1Cl)N1CCn2c(nc(Br)c2-c2ccc(F)cc2)C1 [Example 34, 2-Bromo-7-{[2-chloro-3-(trifluoromethyl)phenyl]carbonyl}-3-(4-fluorophenyl)-5,6,7,8-tetrahydroimidazo[1,2-a]pyrazine] |
| < 0.01 | O=C(c1cccc(C(F)(F)F)c1Cl)N1CCn2c(nc(C(F)(F)F)c2Br)C1 [Example 19, 3-Bromo-7-{[2-chloro-3-(trifluoromethyl)phenyl]carbonyl}-2-(trifluoromethyl)-5,6,7,8-tetrahydroimidazo[1,2-a]pyrazine] |
| < 0.1 | O=C(c1cccc(C(F)(F)F)c1Cl)N1CCn2c(Cl)cnc2C1 [Example 43, 3-chloro-7-{[2-chloro-3-(trifluoromethyl)phenyl]carbonyl}-5,6,7,8-tetrahydroimidazo[1,2-a]pyrazine] |
| < 0.01 | O=C(c1cccc(C(F)(F)F)c1Cl)N1CCn2c(nc(Cl)c2Br)C1 [Example 33, 3-Bromo-2-chloro-7-{[2-chloro-3-(trifluoromethyl)phenyl]carbonyl}-5,6,7,8-tetrahydroimidazo[1,2-a]pyrazine] |
| < 0.501 | O=C(c1cccc(C(F)(F)F)c1Cl)N1CCn2c(-c3ccc(Cl)cc3)cnc2C1 [Example 25, 3-(4-chlorophenyl)-7-{[2-chloro-3-(trifluoromethyl)phenyl]carbonyl}-5,6,7,8-tetrahydroimidazo[1,2-a]pyrazine hydrochloride] |
| < 0.1 | O=C(c1cccc(C(F)(F)F)c1Cl)N1CCn2c(-c3ccc(F)cc3)cnc2C1 [Example 22, 7-{[2-Chloro-3-(trifluoromethyl)phenyl]carbonyl}-3-(4-fluorophenyl)-5,6,7,8-tetrahydroimidazo[1,2-a]pyrazine hydrochloride] |
| < 1 | O=C(c1cccc(C(F)(F)F)c1Cl)N1CCn2c(-c3cccc(C(F)(F)F)c3Cl)cnc2C1 [Example 24, 3-[2-chloro-3-(trifluoromethyl)phenyl]-7-{[2-chloro-3-(trifluoromethyl)phenyl]carbonyl}-5,6,7,8-tetrahydroimidazo[1,2-a]pyrazine hydrochloride] |
| < 0.01 | O=C(c1cccc(Cl)c1Cl)N1CCn2c(-c3ccccc3)cnc2C1 [Example 9, 7-[(2,3-Dichlorophenyl)carbonyl]-3-phenyl-5,6,7,8-tetrahydroimidazo[1,2-a]pyrazine hydrochloride] |
| < 0.1 | O=C(c1cccc(C(F)(F)F)c1Cl)N1CCn2c(nc(C(F)(F)F)c2-c2ccc(F)cc2)C1 [Example 35, 7-{[2-chloro-3-(trifluoromethyl)phenyl]carbonyl}-3-(4-fluorophenyl)-2-(trifluoromethyl)-5,6,7,8-tetrahydroimidazo[1,2-a]pyrazine] |
| < 0.1 | O=C(c1cccc(C(F)(F)F)c1Cl)N1CCn2c(nc(C(F)(F)F)c2-c2ccccc2)C1 [Example 26, 7-{[2-Chloro-3-(trifluoromethyl)phenyl]carbonyl}-3-phenyl-2-(trifluoromethyl)-5,6,7,8-tetrahydroimidazo[1,2-a]pyrazine] |
